From patent US6482810B1, “Antibiotic composition for inhibition of angiogenesis” (priority 1991, dated 2002)
Where two headings read alike, the source gives them in different places.

Experiments:
[1] = system: angiogenesis in the cornea; conditions: rabbit, in vivo
[2] = system: tumor-induced angiogenesis (VX2 carcinoma) in the rabbit cornea; assay: Rabbit cornea angiogenesis assay with VX2 carcinoma and controlled release polymers; conditions: for factor of decrease of tumor-induced angiogenesis: versus empty polymer
[3] = system: angiogenesis in the cornea; assay: Drug-containing polymers implanted alone in the cornea; conditions: polymer without tumor in the cornea

## CC(=O)OCC(=O)[C@@]1(O)CC[C@H]2[C@@H]3CCC4=CC(=O)CC[C@]4(C)[C@H]3C(=O)C[C@@]21C [cortisone, cortisone acetate]
[1]
  angiogenesis induced by polymer implanted alone: did not induce angiogenesis
[2]; controlled release from EVAc polymer, 7, 14 and 21 days, P<0.05
  inhibition of tumor angiogenesis (angiogenesis index): significantly inhibited

## CN(C)c1ccc(O)c2c1C[C@H]1C[C@H]3[C@H](N(C)C)C(O)=C(C(N)=O)C(=O)[C@@]3(O)C(O)=C1C2=O [minocycline]
[2]; 7 days after implantation
  factor of decrease of tumor-induced angiogenesis: 4.5
[2]; 14 days after implantation
  factor of decrease of tumor-induced angiogenesis: 4.4
[2]; 21 days after implantation
  factor of decrease of tumor-induced angiogenesis: 2.9
[3]
  angiogenesis induced by polymer implanted alone: did not induce angiogenesis

## heparin
[3]
  angiogenesis induced by polymer implanted alone: promote a mild angiogenic response
